Experiments:
[1] = Induction of apoptosis in mouse EAC cells at 500 uM after 24 hrs by acridine orange dye-based fluorescence microscopy (reference value: 0.66 +/- 0.33%); assay type: cell-based; settings: ehrlich
[2] = Cytotoxicity against human KM12 cells assessed as growth inhibition after 48 hrs by SRB assay; assay type: functional; settings: KM12, 48 h
[3] = Cytotoxicity against human HCT15 cells assessed as assessed as growth inhibition at 10^-5 M after 48 hrs by SRB assay relative to control; assay type: functional; settings: HCT-15, 48 h, read-out: GI
[4] = Cytotoxicity against human COLO205 cells assessed as growth inhibition after 48 hrs by SRB assay; assay type: functional; settings: COLO 205, 48 h
[5] = Cytotoxicity against human RXF393 cells assessed as growth inhibition after 48 hrs by SRB assay; assay type: functional; settings: RXF 393, 48 h
[6] = Cytotoxicity against human OVCAR5 cells assessed as growth inhibition after 48 hrs by SRB assay; assay type: functional; settings: OVCAR-5, 48 h
[7] = Cytotoxicity against human MDA-MB-435 cells assessed as growth inhibition after 48 hrs by SRB assay; assay type: functional; settings: MDA-MB-435, 48 h, read-out: LD50 (the source's name)
[8] = Cytotoxicity against human SNB19 cells assessed as growth inhibition after 48 hrs by SRB assay; assay type: functional; settings: SNB-19, 48 h
[9] = Cytotoxicity against human PC3 cells assessed as growth inhibition after 48 hrs by SRB assay; assay type: functional; settings: PC-3, 48 h
[10] = Cytotoxicity against human LOXIMVI cells assessed as assessed as growth inhibition at 10^-5 M after 48 hrs by SRB assay relative to control; assay type: functional; settings: LOX IMVI, read-out: GI
[11] = Cytotoxicity against human SKOV3 cells assessed as growth inhibition after 48 hrs by SRB assay; assay type: functional; settings: SK-OV-3, 48 h
[12] = Cytotoxicity against human MALME-3M cells assessed as assessed as growth inhibition at 10^-5 M after 48 hrs by SRB assay relative to control; assay type: functional; settings: read-out: GI
[13] = Cytotoxicity against human Hs 578T cells assessed as assessed as growth inhibition at 10^-5 M after 48 hrs by SRB assay relative to control; assay type: functional; settings: read-out: GI
[14] = Cytotoxicity against human U251 cells assessed as growth inhibition after 48 hrs by SRB assay; assay type: functional; settings: U-251, 48 h
[15] = Cytotoxicity against human Caki1 cells assessed as assessed as growth inhibition at 10^-5 M after 48 hrs by SRB assay relative to control; assay type: functional; settings: CAKI-1, 48 h, read-out: GI
[16] = Cytotoxicity against human K562 cells assessed as growth inhibition after 48 hrs by SRB assay; assay type: functional; settings: K562, 48 h
[17] = Cytotoxicity against human UO31 cells assessed as assessed as growth inhibition at 10^-5 M after 48 hrs by SRB assay relative to control; assay type: functional; settings: UO-31, 48 h, read-out: GI
[18] = Cytotoxicity against human SK-MEL-5 cells assessed as growth inhibition after 48 hrs by SRB assay; assay type: functional; settings: SK-MEL-5, 48 h
[19] = Cytotoxicity against human MDA-MB-231 cells assessed as growth inhibition after 48 hrs by SRB assay; assay type: functional; settings: MDA-MB-231, 48 h
[20] = Cytotoxicity against human 786-0 cells assessed as assessed as growth inhibition at 10^-5 M after 48 hrs by SRB assay relative to control; assay type: functional; settings: 786-0, 48 h, read-out: GI
[21] = Cytotoxicity against human BT549 cells assessed as assessed as growth inhibition at 10^-5 M after 48 hrs by SRB assay relative to control; assay type: functional; settings: BT-549, 48 h, read-out: GI
[22] = Cytotoxicity against human LOXIMVI cells assessed as growth inhibition after 48 hrs by SRB assay; assay type: functional; settings: LOX IMVI
[23] = Cytotoxicity against human OVCAR3 cells assessed as growth inhibition after 48 hrs by SRB assay; assay type: functional; settings: OVCAR-3, 48 h
[24] = Cytotoxicity against human SNB75 cells assessed as growth inhibition after 48 hrs by SRB assay; assay type: functional; settings: SNB-75, 48 h
[25] = Induction of apoptosis in mouse EAC cells at 250 uM after 24 hrs by acridine orange dye-based fluorescence microscopy (reference value: 0.66 +/- 0.33%); assay type: cell-based; settings: ehrlich
[26] = Cytotoxicity against human TK10 cells assessed as assessed as growth inhibition at 10^-5 M after 48 hrs by SRB assay relative to control; assay type: functional; settings: TK-10, 48 h, read-out: GI
[27] = Cytotoxicity against human NCI-ADR-RES cells assessed as growth inhibition after 48 hrs by SRB assay; assay type: functional
[28] = Cytotoxicity against human SNB19 cells assessed as assessed as growth inhibition at 10^-5 M after 48 hrs by SRB assay relative to control; assay type: functional; settings: SNB-19, 48 h, read-out: GI
[29] = Cytotoxicity against human A498 cells assessed as growth inhibition after 48 hrs by SRB assay; assay type: functional; settings: A498, 48 h
[30] = Cytotoxicity against human SK-MEL-5 cells assessed as assessed as growth inhibition at 10^-5 M after 48 hrs by SRB assay relative to control; assay type: functional; settings: SK-MEL-5, 48 h, read-out: GI
[31] = Cytotoxicity against human NCI-H226 cells assessed as assessed as growth inhibition at 10^-5 M after 48 hrs by SRB assay relative to control; assay type: functional; settings: NCI-H226, 48 h, read-out: GI
[32] = Cytotoxicity against human IGROV1 cells assessed as assessed as growth inhibition at 10^-5 M after 48 hrs by SRB assay relative to control; assay type: functional; settings: IGROV-1, 48 h, read-out: GI
[33] = Cytotoxicity against human NCI-H460 cells assessed as assessed as growth inhibition at 10^-5 M after 48 hrs by SRB assay relative to control; assay type: functional; settings: NCI-H460, 48 h, read-out: GI
[34] = read-out: LD50 (the source's name)

**Q.** What does the source list for `O=C1Cc2cc(CCn3ccnc3)c(Cl)cc2N1`?
**A.** Activity [1]: 0.53%; GI50 [2]: 3580 nM; TGI [2]: 9840 nM; CC50 [2, 34]: > 1000 nM; inhibition of growth at 10 µM [3]: 32.8%; GI50 [4]: 1510 nM; TGI [4]: > 1000 nM; CC50 [4, 34]: > 1000 nM; GI50 [5]: 6280 nM; TGI [5]: > 1000 nM; CC50 [5, 34]: > 1000 nM; GI50 [6]: 4480 nM; TGI [6]: > 1000 nM; CC50 [6, 34]: > 1000 nM; CC50 [7]: > 1000 nM; GI50 [8]: 2210 nM; TGI [8]: > 1000 nM; CC50 [8, 34]: > 1000 nM; GI50 [9]: 3560 nM; TGI [9]: > 1000 nM; CC50 [9, 34]: > 1000 nM; inhibition of growth at 10 µM [10]: 26.4%; GI50 [11]: 1810 nM; TGI [11]: > 1000 nM; CC50 [11, 34]: > 1000 nM; inhibition of growth at 10 µM [12]: 2.24%; inhibition of growth at 10 µM [13]: 68.9%; GI50 [14]: 8240 nM; TGI [14]: > 1000 nM; CC50 [14, 34]: > 1000 nM; inhibition of growth at 10 µM [15]: 36.3%; GI50 [16]: 8260 nM; TGI [16]: > 1000 nM; CC50 [16, 34]: > 1000 nM; inhibition of growth at 10 µM [17]: 39.3%; GI50 [18]: 8120 nM; TGI [18]: > 1000 nM; CC50 [18, 34]: > 1000 nM; GI50 [19]: 5180 nM; TGI [19]: > 1000 nM; CC50 [19, 34]: > 1000 nM; inhibition of growth at 10 µM [20]: 10.6%; inhibition of growth at 10 µM [21]: 30.3%; GI50 [22]: 8530 nM; TGI [22]: > 1000 nM; CC50 [22, 34]: > 1000 nM; GI50 [23]: 9310 nM; TGI [23]: 7810 nM; CC50 [23, 34]: > 1000 nM; GI50 [24]: 2160 nM; TGI [24]: > 1000 nM; CC50 [24, 34]: > 1000 nM; Activity [25]: 0.5%; inhibition of growth at 10 µM [26]: -23.4%; GI50 [27]: 5460 nM; TGI [27]: > 1000 nM; CC50 [27, 34]: > 1000 nM; inhibition of growth at 10 µM [28]: 28.5%; GI50 [29]: 2190 nM; TGI [29]: 6110 nM; CC50 [29, 34]: > 1000 nM; inhibition of growth at 10 µM [30]: 67.8%; inhibition of growth at 10 µM [31]: 10.7%; inhibition of growth at 10 µM [32]: 13.3%; inhibition of growth at 10 µM [33]: 52.6%

Reference: ChEMBL document CHEMBL3856212, “Synthesis, anti-proliferative and genotoxicity studies of 6-chloro-5-(2-substituted-ethyl)-1,3-dihydro-2H-indol-2-ones and 6-chloro-5-(2-chloroethyl)-3-(alkyl/ary-2-ylidene)indolin-2-ones” (Eur J Med Chem, 2016)
